This is an account of results in PubChem BioAssay (NCI).

Some test systems named below: OVCAR-4 ovarian; RXF 393 renal; LOX IMVI melanoma; MDA-N; SW-620 colon; 786-0 renal; KM12 colon; TK-10 renal; OVCAR-5 ovarian; SK-MEL-28 melanoma; UO-31 renal; M14 melanoma; OVCAR-8 ovarian; NCI-H460 lung; A498 renal; SR leukemia; SK-MEL-2 melanoma; NCI-H522 lung; DU-145 prostate; HCT-116 colon.
Holding throughout (experiment): growth of human tumour cells (NCI), 48 h

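96-well plates; 48 h exposure; 5 concentrations. Endpoints by linear interpolation between flanking doses. Not reached: highest tested concentration assigned. Definition used: TGI = concentration required for complete inhibition of growth.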

On to `O=C(O)C1=C(C(=O)O)N(c2ccncc2)C(c2ccco2)=CC1c1ccccc1[N+](=O)[O-]` (centres undefined), for which the TGI was 25.9 µM in the assay with OVCAR-4 ovarian; 21.3 µM in the assay with RXF 393 renal; 4.02 µM in the assay on LOX IMVI melanoma; 20.7 µM with MDA-N; above 27.1 µM in the assay with SW-620 colon; 4.06 µM in the assay on 786-0 renal. For the same compound, the TGI in the assay on KM12 colon was 3.36 µM; in the assay with TK-10 renal it was 17.6 µM; in the assay on OVCAR-5 ovarian, 33.8 µM; in the assay with SK-MEL-28 melanoma, above 54.8 µM; with UO-31 renal it was 20.6 µM; with M14 melanoma it was 22.5 µM. Moreover, the TGI in the assay on OVCAR-8 ovarian was above 59 µM; in the assay with NCI-H460 lung, 28.9 µM; in the assay with A498 renal it was 28.1 µM; with SR leukemia it was 5.68 µM; with SK-MEL-2 melanoma, 37.3 µM; with NCI-H522 lung it was 9.59 µM. Also, the TGI in the assay with DU-145 prostate came to 24.9 µM; in the assay on HCT-116 colon it was 3.4 µM.

With `Oc1ccc2oc3c(O)c4ccccc4cc3c2c1`, the TGI with OVCAR-4 ovarian was determined as 13 µM; in the assay with RXF 393 renal, 16.9 µM; in the assay on LOX IMVI melanoma, 21.9 µM; in the assay on MDA-N, 9.89 µM; in the assay with SW-620 colon, 14.1 µM; with 786-0 renal it was 20 µM. Moreover, the TGI in the assay with KM12 colon is 10.5 µM; in the assay on TK-10 renal, 45 µM; in the assay on SK-MEL-28 melanoma, above 100 µM; in the assay on UO-31 renal, 15.8 µM; in the assay on M14 melanoma it was 21.7 µM; with OVCAR-8 ovarian it was 16.5 µM. The TGI was determined as 53.9 µM with NCI-H460 lung; 9.33 µM in the assay with A498 renal; 5.52 µM with SR leukemia; 93 µM in the assay on SK-MEL-2 melanoma; 2.71 µM in the assay with NCI-H522 lung; 15.6 µM in the assay with DU-145 prostate. In the assay on HCT-116 colon, the TGI amounted to 4.16 µM.

Turning to `CSCCC(N)P(C)(=O)O` (centres undefined), the TGI in the assay with OVCAR-4 ovarian, in the assay with RXF 393 renal, with LOX IMVI melanoma, in the assay with MDA-N, with SW-620 colon and in the assay with 786-0 renal was above 100 µM each time. For the same compound, the TGI with KM12 colon, with TK-10 renal, in the assay on OVCAR-5 ovarian, with SK-MEL-28 melanoma, with UO-31 renal and with M14 melanoma was above 100 µM in each case. Further, the TGI in the assay on OVCAR-8 ovarian, with NCI-H460 lung, in the assay with A498 renal, in the assay with SR leukemia, with SK-MEL-2 melanoma and with NCI-H522 lung was above 100 µM throughout. Besides, the TGI in the assay on DU-145 prostate and in the assay with HCT-116 colon was above 100 µM throughout.

For `O=c1[nH]c(=O)n(C2OC(CO)C(O)C2O)c2ccsc12` (centres undefined), the TGI with OVCAR-4 ovarian, in the assay on RXF 393 renal, in the assay on LOX IMVI melanoma, with MDA-N, in the assay with SW-620 colon and with 786-0 renal was above 100 µM each time. For the same compound, the TGI in the assay with KM12 colon, in the assay with TK-10 renal, in the assay with OVCAR-5 ovarian, with SK-MEL-28 melanoma, with UO-31 renal and in the assay with M14 melanoma was above 100 µM in each case. Also, the TGI in the assay with NCI-H460 lung, in the assay on A498 renal, in the assay with SR leukemia, in the assay with SK-MEL-2 melanoma, in the assay on NCI-H522 lung and in the assay on DU-145 prostate was above 100 µM throughout. The same compound displayed a TGI with HCT-116 colon above 100 µM.

Take `C1=Nc2sc3c(c2C2=NCCN12)CCCC3`: the TGI with OVCAR-4 ovarian stood at 42.1 µM; with RXF 393 renal it was 44.9 µM; in the assay with LOX IMVI melanoma, 28.2 µM; with MDA-N it was 35.5 µM; in the assay on SW-620 colon it was 43.8 µM; with 786-0 renal, 34.1 µM. Also, the TGI in the assay on KM12 colon was 31.3 µM; with TK-10 renal, 30.7 µM; in the assay on OVCAR-5 ovarian it was 35.9 µM; in the assay with SK-MEL-28 melanoma, 41 µM; in the assay on UO-31 renal, 30.1 µM; in the assay with OVCAR-8 ovarian it was 32.1 µM. For the same compound, the TGI in the assay with NCI-H460 lung was 32.4 µM; in the assay on A498 renal, 46.6 µM; in the assay on SR leukemia, above 100 µM; in the assay with SK-MEL-2 melanoma, 20.7 µM; in the assay on NCI-H522 lung, 30.9 µM; in the assay on DU-145 prostate, 30.1 µM. In the assay with HCT-116 colon, this compound had a TGI of 30.5 µM.

On to `Cc1cccc2c(N)c3cccc(C(=O)NCC[N+](C)(C)Cc4sccc4[N+](=O)[O-])c3nc12`, for which the TGI with OVCAR-4 ovarian is 35.5 µM; with RXF 393 renal it was 33.4 µM; in the assay on LOX IMVI melanoma, 61 µM; with MDA-N, 80.2 µM; in the assay on SW-620 colon it was above 100 µM; in the assay on 786-0 renal, above 100 µM. For the same compound, the TGI in the assay with KM12 colon is 28.2 µM; in the assay with TK-10 renal it was above 100 µM; with OVCAR-5 ovarian, 33.1 µM; in the assay with SK-MEL-28 melanoma it was above 100 µM; in the assay with UO-31 renal, above 100 µM; in the assay with M14 melanoma, 32.8 µM. The TGI with OVCAR-8 ovarian was 35.9 µM; in the assay with A498 renal, above 100 µM; in the assay on SR leukemia, above 100 µM; in the assay on SK-MEL-2 melanoma, above 100 µM; in the assay on NCI-H522 lung, 29.1 µM; in the assay with DU-145 prostate, above 100 µM. In the assay with HCT-116 colon, this compound came in with a TGI of 96.8 µM.

With `C=C1CCCCCCCCCCC12SCCC2CCCCSC` (centres undefined), the TGI with OVCAR-4 ovarian is above 100 µM; with RXF 393 renal, 50.4 µM; in the assay on LOX IMVI melanoma, 34.2 µM; with MDA-N, above 100 µM; in the assay on SW-620 colon, 68.9 µM; in the assay on 786-0 renal, 87.4 µM. Moreover, the TGI in the assay on OVCAR-5 ovarian was 40 µM; in the assay on SK-MEL-28 melanoma it was 57.8 µM; with UO-31 renal, 60.4 µM; in the assay on M14 melanoma it was 50.1 µM; in the assay with OVCAR-8 ovarian, 56.4 µM; in the assay with NCI-H460 lung, above 100 µM. Further, the TGI in the assay with A498 renal is 35.8 µM; with SR leukemia, 53.4 µM; in the assay with SK-MEL-2 melanoma it was 37.7 µM; in the assay with NCI-H522 lung, 36.8 µM; in the assay with DU-145 prostate, above 100 µM; with HCT-116 colon, 33.9 µM.
